From PubChem BioAssay (NCI)
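Protocol summary: plate cells (96-well), add compound at 5 concentrations, incubate 48 h, interpolate endpoints linearly. At the TGI there is no net growth.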

Tests used:
Assay in all cases: inhibition of tumour cell growth, NCI panel, 48 h
SF-295 CNS = test system: SF-295 CNS
LOX IMVI melanoma = test system: LOX IMVI melanoma
UACC-257 melanoma = test system: UACC-257 melanoma
SF-539 CNS = test system: SF-539 CNS
SF-268 CNS = test system: SF-268 CNS
HCC-2998 colon = test system: HCC-2998 colon
UACC-62 melanoma = test system: UACC-62 melanoma
SK-MEL-2 melanoma = test system: SK-MEL-2 melanoma
A498 renal = test system: A498 renal
HOP-62 NSCLC = test system: HOP-62 NSCLC
U251 CNS = test system: U251 CNS
HCT-116 colon = test system: HCT-116 colon
HL-60(TB) leukemia = test system: HL-60(TB) leukemia
LXFL 529 NSCLC = test system: LXFL 529 NSCLC
RXF 393 renal = test system: RXF 393 renal
NCI-H226 lung = test system: NCI-H226 lung
SR leukemia = test system: SR leukemia
NCI-H23 lung = test system: NCI-H23 lung
OVCAR-4 ovarian = test system: OVCAR-4 ovarian
A549 NSCLC = test system: A549 NSCLC
SNB-75 CNS = test system: SNB-75 CNS
SK-MEL-5 melanoma = test system: SK-MEL-5 melanoma
MOLT-4 leukemia = test system: MOLT-4 leukemia
OVCAR-3 ovarian = test system: OVCAR-3 ovarian
OVCAR-8 ovarian = test system: OVCAR-8 ovarian
DMS 273 small cell lung = test system: DMS 273 small cell lung
TK-10 renal = test system: TK-10 renal
NCI-H460 lung = test system: NCI-H460 lung
RXF-631 renal = test system: RXF-631 renal
M19-MEL melanoma = test system: M19-MEL melanoma
SN12C renal = test system: SN12C renal
EKVX NSCLC = test system: EKVX NSCLC
HOP-18 NSCLC = test system: HOP-18 NSCLC
IGROV1 ovarian = test system: IGROV1 ovarian
KM20L2 colon = test system: KM20L2 colon
DLD-1 colon = test system: DLD-1 colon
SNB-19 CNS = test system: SNB-19 CNS
RPMI-8226 leukemia = test system: RPMI-8226 leukemia
SW-620 colon = test system: SW-620 colon
K-562 leukemia = test system: K-562 leukemia
M14 melanoma = test system: M14 melanoma
OVCAR-5 ovarian = test system: OVCAR-5 ovarian
MALME-3M melanoma = test system: MALME-3M melanoma
HCT-15 colon = test system: HCT-15 colon
HT29 colon = test system: HT29 colon
COLO 205 colon = test system: COLO 205 colon
DMS 114 small cell lung = test system: DMS 114 small cell lung
UO-31 renal = test system: UO-31 renal
CCRF-CEM leukemia = test system: CCRF-CEM leukemia
ACHN renal = test system: ACHN renal
786-0 renal = test system: 786-0 renal
XF 498 CNS = test system: XF 498 CNS
CAKI-1 renal = test system: CAKI-1 renal
SK-MEL-28 melanoma = test system: SK-MEL-28 melanoma
HOP-92 NSCLC = test system: HOP-92 NSCLC
KM12 colon = test system: KM12 colon
SNB-78 CNS = test system: SNB-78 CNS
SK-OV-3 ovarian = test system: SK-OV-3 ovarian
NCI-H522 lung = test system: NCI-H522 lung

Measured: TGI

Nc1nc(=O)n(CC(O)CO)s1 (stereo unspecified)
not listed: 786-0 renal | XF 498 CNS | CAKI-1 renal | SK-MEL-28 melanoma | HOP-92 NSCLC | KM12 colon | SNB-78 CNS | SK-OV-3 ovarian | NCI-H522 lung
> 100 µM: all other assays above

Cc1ccccc1NC(=O)c1ccc([N+](=O)[O-])cc1
not listed: SK-MEL-2 melanoma | SR leukemia | RXF-631 renal
> 100 µM: all other assays above
